Experimental data: patent publication US12246034B2, “Animal feed supplement and method” (CAN TECHNOLOGIES, INC., priority 2014, dated 2025)
Read-outs that look alike come from different tables or passages of the source.

Tests used:
[1] = test system: sows; conditions: for Probability of a higher Vitality score: scored within 30 seconds after birth; for Average weight at weaning: piglets
Protocol: A trial was conducted at the Sterksel Research farm in the Netherlands (part of Wageningen University Research). A total of 207 sows were used in the trial allocated based on parity over 6 treatments (n=34). […] Calcium levels were the same in all diets.
(§1) Until farrowing, sows received a fixed amount of feed (3.25 kg from day 107-113 and 2.7 kg/sow/day from day 113 till farrowing). During lactation the sows were fed the diets according to a step-up feeding schedule applied (increasing with 0.5 kg/sow/day) the same over the 6 treatments aiming at a peak intake of 7.5 kg/sow/day. Piglets were weaned from the sow at 27 days of age. Performance of sows (e.g. weight, backfat, piglets born alive, stillborn piglets, mortality of piglets) and piglets (e.g. weight at birth, after 48 hours and weaning) was measured on all sows and litters. A subset of sows (19-20 per treatment) was examined more in detail to get insight in the possible mode of action of nitrate. On this subset, blood samples were collected within 4 minutes after birth from 2 piglets out of every 4 piglets born. Blood gasses of umbilical cord blood were analyzed using the i-STAT handheld (Abbott). Vitality of piglets was scored within 30 seconds after birth according to Baxter et al. (2008) with 1 being the lowest and 4 being the highest score for vitality.

[2] = for pCO2 - Measured value / pH / pO2 - Measured value: umbilical cord blood piglets
Description: as §1

[3] = test system: sows
Protocol: A field trial was conducted on a commercial farm in Denmark with 650 highly productive Danbred sows (Landrace x Yorkshire) inseminated with a pure line Duroc boar, between Nov. 17, 2014 and Jan. 16, 2015. A total of 139 sows (total number before analyzes) were included in the trial, divided over 3 subsequent sow groups farrowing over a time span of 6 weeks. For all analyzes SAS software (version 9.3, SAS Institute Inc., Cary, N.C.) was used. Sows received a dry meal transition feed (from gestation to lactation), fed from day 111 of gestation till day 5 of lactation, and were allocated to one of the two treatment groups based on parity. […] The total amount of calcium was equal between both experimental treatments. Number born alive (NBA), stillborn and mummies, litter birth weight, as well as back fat of the sows before farrowing (day 110 of gestation) and at weaning (day 24 of lactation) were measured. Litter weights at 24 hours and 3 days after birth were measured as well. On day 3 after birth blood samples were taken from 6 piglets (2 biggest, 2 medium and 2 smallest) from 65 litters of their tails when they were cut and analyzed on immunoglobulin G (IgG) concentration. Placentas of the sows were collected after the farrowing process was finished, stored in freezers and afterwards scored on redness for an indication of the vascularization of these placentas.

[4] = 0.03% nitrate in lactation diet
[5] = 0.06% nitrate in lactation diet
[6] = 0.09% nitrate in lactation diet
[7] = 0.12% nitrate in lactation diet
[8] = 0.15% nitrate in lactation diet
[9] = across 0.03-0.15% nitrate in feed
[10] = across 0.03-0.15% nitrate in lactation diet
[11] = across 0.03-0.15% nitrate, P<0.05

In the case of `O=[N+]([O-])O` [Nitrate, nitrate], the “Aver. birth weight born alive pigs” value [1, 4] is reported as 1308 grams, the Average livability % [1, 4] is reported as 76.1% and the Average mortality % [1, 4] is reported as 16.5%. The “Average piglet weight after 48 hours” value [1, 4] was 1.611 kg, the Probability born alive [1, 4] was 0.95 and the Probability livability [1, 4] was 0.85. For the same compound, the Probability mortality [1, 4] was 0.10, the Probability weaned [1, 4] was 0.91 and the Total born [1, 4] was 16.8. For the same compound, the Total born alive [1, 4] was 15.2, the Total born mummified [1, 4] was 0.6 and the Total still born [1, 4] was 1.6. For the same compound, the Total weaned [1, 4] was 12.3, the “total birth weight litter life born piglets” value [1, 4] was 19.5 kg and the “total litter weight weaning” value [1, 4] was 91.8 kg. The “Probability of a higher Vitality score” value [1, 4] was 0.70, the “Aver. birth weight born alive pigs” value [1, 5] was 1320 grams and the Average livability % [1, 5] was 78.3%. For the same compound, the Average mortality % [1, 5] was 16.2%, the “Average piglet weight after 48 hours” value [1, 5] was 1.598 kg and the Probability born alive [1, 5] was 0.97. The Probability livability [1, 5] was 0.86, the Probability mortality [1, 5] was 0.10 and the Probability weaned [1, 5] was 0.91. The Total born [1, 5] was 16.8, the Total born alive [1, 5] was 15.7 and the Total born mummified [1, 5] was 0.7. The Total still born [1, 5] was 1.1, the Total weaned [1, 5] was 12.4 and the “total birth weight litter life born piglets” value [1, 5] was 20.3 kg. The “total litter weight weaning” value [1, 5] was 91.8 kg, the “Probability of a higher Vitality score” value [1, 5] was 0.74 and the “Aver. birth weight born alive pigs” value [1, 6] was 1329 grams. The Average livability % [1, 6] was 81.3%, the Average mortality % [1, 6] was 12.7% and the “Average piglet weight after 48 hours” value [1, 6] was 1.621 kg. It also gave a Probability livability [1, 6] of 0.89, a Probability mortality [1, 6] of 0.07 and a Probability weaned [1, 6] of 0.94. It also gave a Total born [1, 6] of 16.1, a Total born mummified [1, 6] of 0.5 and a Total still born [1, 6] of 1.2. The “total birth weight litter life born piglets” value [1, 6] was 20.2 kg, the “total litter weight weaning” value [1, 6] was 96.9 kg and the “Probability of a higher Vitality score” value [1, 6] was 0.80. For the same compound, the “Aver. birth weight born alive pigs” value [1, 7] was 1326 grams, the Average livability % [1, 7] was 80.0% and the Average mortality % [1, 7] was 14.0%. The “Average piglet weight after 48 hours” value [1, 7] was 1.640 kg, the Probability born alive [1, 7] was 0.96 and the Probability livability [1, 7] was 0.88. It also gave a Probability mortality [1, 7] of 0.08, a Probability weaned [1, 7] of 0.93 and a Total born [1, 7] of 17.1. The Total born alive [1, 7] was 15.8, the Total born mummified [1, 7] was 0.5 and the Total still born [1, 7] was 1.3. For the same compound, the Total weaned [1, 7] was 13.0, the “total birth weight litter life born piglets” value [1, 7] was 20.8 kg and the “total litter weight weaning” value [1, 7] was 98.6 kg. The “Probability of a higher Vitality score” value [1, 7] was 0.78, the “Aver. birth weight born alive pigs” value [1, 8] was 1355 grams and the Average livability % [1, 8] was 79.0%. The Average mortality % [1, 8] was 14.8%, the “Average piglet weight after 48 hours” value [1, 8] was 1.692 kg and the Probability born alive [1, 8] was 0.96. For the same compound, the Probability livability [1, 8] was 0.87, the Probability mortality [1, 8] was 0.09 and the Probability weaned [1, 8] was 0.92. For the same compound, the Total born [1, 8] was 16.6, the Total born alive [1, 8] was 15.3 and the Total born mummified [1, 8] was 0.3. The Total still born [1, 8] was 1.3, the Total weaned [1, 8] was 12.6 and the “total birth weight litter life born piglets” value [1, 8] was 21.0 kg. The “total litter weight weaning” value [1, 8] was 96.8 kg, the “Probability of a higher Vitality score” value [1, 8] was 0.79 and the “Total litter weight at weaning on increasing nitrate addition” value [1, 9] was “significantly (P<0.05) improved”. The “Vitality score of the piglets on increasing nitrate addition” value [1, 9] was “significantly (P<0.05) improved”, the “livability, effect of higher nitrate levels” value [1, 10] was “increase” and the “mortality, effect of higher nitrate levels” value [1, 10] was “tended to lower”. The “weaned piglets per litter, effect of higher nitrate levels” value [1, 10] was “more”, the “average piglet birth weight with increasing nitrate levels” value [1, 11] was “higher” and the “average piglet weight at 48 h with increasing nitrate levels” value [1, 11] was “higher”. For the same compound, the “total liter birth weight with increasing nitrate levels” value [1, 11] was “higher”, the “Probability of weaned piglets with increasing nitrate inclusion” value ([1]; across 0.03-0.15% nitrate, P<0.10) was “improved” and the Probability born alive ([1]; in vivo) was 0.96. The Total born alive ([1]; in vivo) was 14.9, the Total weaned ([1]; in vivo) was 12.7 and the “Average weight at weaning” value [1, 4] was 7.439 kg. The “Average weight at weaning” value [1, 5] was 7.321 kg, the “Average weight at weaning” value [1, 6] was 7.472 kg and the “Average weight at weaning” value [1, 7] was 7.550 kg. For the same compound, the “Average weight at weaning” value [1, 8] was 7.608 kg, the “pCO2 - Measured value” ([2]; 0.03% nitrate in sow diet) was 34.1 mmHg and the pH ([2]; 0.03% nitrate in sow diet) was 7.5. The “pO2 - Measured value” ([2]; 0.03% nitrate in sow diet) was 33.8 mmHg, the “pCO2 - Measured value” ([2]; 0.06% nitrate in sow diet) was 34.5 mmHg and the pH ([2]; 0.06% nitrate in sow diet) was 7.5. The “pO2 - Measured value” ([2]; 0.06% nitrate in sow diet) was 35.4 mmHg, the “pCO2 - Measured value” ([2]; 0.09% nitrate in sow diet) was 34.9 mmHg and the pH ([2]; 0.09% nitrate in sow diet) was 7.5. For the same compound, the “pO2 - Measured value” ([2]; 0.09% nitrate in sow diet) was 34.5 mmHg, the “pCO2 - Measured value” ([2]; 0.12% nitrate in sow diet) was 34.5 mmHg and the pH ([2]; 0.12% nitrate in sow diet) was 7.5. For the same compound, the “pO2 - Measured value” ([2]; 0.12% nitrate in sow diet) was 35.6 mmHg, the “pCO2 - Measured value” ([2]; 0.15% nitrate in sow diet) was 34.8 mmHg and the pH ([2]; 0.15% nitrate in sow diet) was 7.5. For the same compound, the “pO2 - Measured value” ([2]; 0.15% nitrate in sow diet) was 35.3 mmHg, the “pO2 values with increasing nitrate addition” value ([2]; umbilical cord blood, across 0.03-0.15% nitrate) was “linearly improved” and the “NBA (Number Born Alive)” value ([3]; 0.1% Bolifor CNF in transition feed, LS Means ± SEM) was “increased”. The “NBD (Number Born Death), stillborn piglets” value ([3]; 0.1% Bolifor CNF in transition feed, log transformed, back-transformed to absolute values) was “decreased” and the “Colostrum, CI (Colostrum Intake)” value ([3]; 0.1% Bolifor CNF, calculated colostrum intake) was “No differences were found”.
